Source: EPA's ToxRefDB 2

Assays:
dog [1] = conditions: Chronic toxicity, beagle, Oral, Feed, dose end: 24 month, group: systemic
hamster [2] = conditions: Subchronic oral toxicity in rodents, golden syrian, Feed, dose end: 13 week, group: systemic
hamster [3] = conditions: Carcinogenicity; golden syrian; Oral; Feed; dose end: 88 week; group: systemic; systemic / pathology microscopic / pancreas / hyperplasia + systemic / pathology microscopic / prostate / secretory fluid + systemic / …
rabbit [4] = conditions: Prenatal developmental toxicity study, new zealand white, Oral, Gavage/Intubation, dose end: 19 GD
rat [5] = conditions: Subchronic oral toxicity in rodents, other, [Not Specified], dose end: 90 day, group: systemic
rat [6] = conditions: Combined chronic toxicity/carcinogenicity; fischer; Oral; Feed; dose end: 110 week; group: systemic; systemic / clinical chemistry / cholesterol / cholesterol + systemic / clinical chemistry / creatinine / creatinine + systemic / clinical …
hamster [7] = conditions: Carcinogenicity, golden syrian, Oral, Feed, dose end: 91 week, group: systemic
rat [8] = conditions: Multigenerational reproductive toxicity study, sprague dawley, Oral, Feed, dose end: 2 generation
mouse [9] = conditions: Subchronic oral toxicity in rodents, b6c3f1, Gavage/Intubation, dose end: 14 week, group: systemic
rat [10] = conditions: Carcinogenicity; fischer; Oral; Gavage/Intubation; dose end: 105 week; group: systemic; systemic / in life observation / body weight / body weight + systemic / pathology gross / liver / discolored + systemic / pathology gross / …
mouse [11] = conditions: Carcinogenicity; b6c3f1; Oral; Gavage/Intubation; dose end: 105 week; group: systemic; systemic / in life observation / body weight / body weight + systemic / pathology microscopic / liver / hematopoietic cell proliferation + …
rat [12] = conditions: Subchronic oral toxicity in rodents, fischer, Gavage/Intubation, dose end: 14 week, group: systemic, systemic / in life observation / body weight / body weight + systemic / in life observation / body weight / body weight gain + systemic / …
rabbit [13] = conditions: Subchronic dermal toxicity, new zealand white, Topical, dose end: 13 week, group: systemic, systemic / pathology gross / skin / scabbing + systemic / pathology microscopic / skin / inflammation + systemic / in life observation / …
rabbit [14] = conditions: Prenatal developmental toxicity study, new zealand white, Oral, Gavage/Intubation, dose end: 27 GD
rat [15] = conditions: Reproduction/developmental toxicity screening test, sprague dawley, Dermal, Topical, dose end: 1 generation
rat [16] = conditions: Subchronic oral toxicity in rodents, sprague dawley, Feed, dose end: 90 day, group: systemic
mouse [17] = conditions: Carcinogenicity, cd1, Oral, Feed, dose end: 24 month, group: systemic
rat [18] = conditions: Combined chronic toxicity/carcinogenicity, sprague dawley, Oral, Feed, dose end: 24 month, group: systemic
dog [19] = conditions: Chronic toxicity, beagle, Oral, Feed, dose end: 52 week, group: systemic
rat [20] = conditions: Prenatal developmental toxicity study, other, Oral, Gavage/Intubation, dose end: 15 GD
[21] = systemic / clinical chemistry / [other] / [other] + systemic / clinical chemistry / alanine aminotransferase (alt/sgpt) / alanine …
[22] = systemic / clinical chemistry / lipids / phospholipids + systemic / organ weight / liver / nos + systemic / organ weight / prostate / nos + …
[23] = systemic / clinical chemistry / lipids / phospholipids + systemic / organ weight / liver / nos + systemic / pathology microscopic / …
[24] = group: developmental, developmental / developmental malformation / aortic arch / dilated + developmental / developmental malformation / aortic arch / narrowed + …
[25] = group: maternal, reproductive / reproductive performance / postimplantation loss / postimplantation loss + reproductive / reproductive performance / …
[26] = systemic / organ weight / liver / nos
[27] = systemic / organ weight / liver / nos + systemic / hematology / leukocyte (wbc) count differential / leukocyte (wbc) + systemic / hematology…
[28] = systemic / in life observation / body weight / body weight gain
[29] = systemic / in life observation / body weight / body weight gain + systemic / organ weight / heart / nos
[30] = group: offspring, systemic / in life observation / body weight / offspring (pup) weight
[31] = group: parental, systemic / in life observation / body weight / body weight + systemic / in life observation / body weight / body weight gain + systemic / in…
[32] = group: reproductive, reproductive / reproductive performance / implantations / implantations
[33] = systemic / in life observation / body weight / body weight gain + systemic / organ weight / liver / absolute + systemic / organ weight / …
[34] = systemic / organ weight / epididymis / nos + systemic / organ weight / testes / nos
[35] = group: developmental, systemic / in life observation / body weight / fetal weight
[36] = group: maternal, systemic / in life observation / body weight / body weight gain + systemic / in life observation / food consumption / food consumption + …
[37] = group: offspring, systemic / in life observation / body weight / offspring (pup) weight + systemic / in life observation / clinical signs / desquamation + …
[38] = group: parental, systemic / in life observation / clinical signs / desquamation + systemic / in life observation / clinical signs / erythema + systemic / …
[39] = systemic / clinical chemistry / calcium / calcium + systemic / organ weight / heart / relative to body weight
[40] = systemic / pathology microscopic / liver / cytomegaly
[41] = systemic / pathology microscopic / liver / cytomegaly + systemic / pathology microscopic / lung / adenoma + systemic / in life observation…
[42] = systemic / in life observation / body weight / body weight + systemic / in life observation / body weight / body weight gain
[43] = systemic / pathology microscopic / prostate / hyperplasia
[44] = group: developmental, developmental / developmental malformation / bone / unossified
[45] = group: maternal, systemic / in life observation / body weight / body weight + systemic / in life observation / body weight / body weight gain + systemic / …

## N#Cc1c(Cl)cccc1Cl [Dichlobenil]
Dog [1]; [21]
  LOAEL: 8.75 mg/kg/day
  NEL: 0.5 mg/kg/day
  NOAEL: 1.25 mg/kg/day
Dog [1]; systemic / urinalysis / occult blood / blood
  LEL: 1.25 mg/kg/day
Hamster [2]; [22]
  LEL: 18.8 mg/kg/day
  LOAEL: 18.8 mg/kg/day
Hamster [2]; [23]
  NEL: 3.75 mg/kg/day
  NOAEL: 3.75 mg/kg/day
Hamster [3]
  LEL: 45.6 mg/kg/day
  LOAEL: 45.6 mg/kg/day
  NEL: 9.39 mg/kg/day
  NOAEL: 9.39 mg/kg/day
Rabbit [4]; [24]
  LEL: 135 mg/kg/day
  LOAEL: 135 mg/kg/day
  NEL: 45 mg/kg/day
  NOAEL: 45 mg/kg/day
Rabbit [4]; [25]
  LEL: 135 mg/kg/day
  LOAEL: 135 mg/kg/day
  NEL: 45 mg/kg/day
  NOAEL: 45 mg/kg/day
Rat [5]; [26]
  LEL: 50 mg/kg/day
  LOAEL: 50 mg/kg/day
Rat [5]; [27]
  NEL: 5 mg/kg/day
  NOAEL: 5 mg/kg/day
Rat [6]
  LEL: 17.3 mg/kg/day
  LOAEL: 17.3 mg/kg/day
  NEL: 2.1 mg/kg/day
  NOAEL: 2.1 mg/kg/day
Hamster [7]; [28]
  LOAEL: 51 mg/kg/day
  NOAEL: < 51 mg/kg/day
Hamster [7]; [29]
  LEL: 51 mg/kg/day
  NEL: < 51 mg/kg/day
Rat [8]; [30]
  LEL: 15 mg/kg/day
  LOAEL: 15 mg/kg/day
  NEL: 3 mg/kg/day
  NOAEL: 3 mg/kg/day
Rat [8]; [31]
  LEL: 100 mg/kg/day
  LOAEL: 100 mg/kg/day
  NEL: 15 mg/kg/day
  NOAEL: 15 mg/kg/day
Rat [8]; [32]
  LEL: 100 mg/kg/day
  LOAEL: > 100 mg/kg/day
  NEL: 15 mg/kg/day
  NOAEL: ≥ 100 mg/kg/day

## C=CCc1ccc(OC)c(OC)c1 [Methyleugenol]
Mouse [9]; [33]
  LOAEL: 300 mg/kg/day
  NOAEL: 100 mg/kg/day
Mouse [9]; [34]
  LEL: 10 mg/kg/day
  NEL: < 10 mg/kg/day
Rat [10]
  LEL: 37 mg/kg/day
  LOAEL: 75 mg/kg/day
  NEL: < 37 mg/kg/day
  NOAEL: 37 mg/kg/day
Mouse [11]
  LEL: 37 mg/kg/day
  LOAEL: 37 mg/kg/day
  NEL: < 37 mg/kg/day
  NOAEL: < 37 mg/kg/day
Rat [12]
  LEL: 10 mg/kg/day
  LOAEL: 300 mg/kg/day
  NEL: < 10 mg/kg/day
  NOAEL: 100 mg/kg/day

## ClC=CC[N+]12CN3CN(CN(C3)C1)C2.[Cl-] [N-(3-Chloroallyl)hexaminium chloride]
Rabbit [13]
  LEL: 50 mg/kg/day
  LOAEL: > 1000 mg/kg/day
  NEL: < 50 mg/kg/day
  NOAEL: ≥ 1000 mg/kg/day
Rabbit [14]; [35]
  LEL: 16 mg/kg/day
  LOAEL: 16 mg/kg/day
  NEL: 5.1 mg/kg/day
  NOAEL: 5.1 mg/kg/day
Rabbit [14]; [36]
  LEL: 16 mg/kg/day
  LOAEL: 16 mg/kg/day
  NEL: 5.1 mg/kg/day
  NOAEL: 5.1 mg/kg/day
Rat [15]; [30]
  NEL: 75 mg/kg/day
Rat [15]; [37]
  LEL: 225 mg/kg/day
  LOAEL: > 750 mg/kg/day
  NOAEL: ≥ 750 mg/kg/day
Rat [15]; [31]
  LOAEL: > 750 mg/kg/day
  NOAEL: ≥ 750 mg/kg/day
Rat [15]; [38]
  LEL: 75 mg/kg/day
  NEL: < 75 mg/kg/day

## COc1nc(C)nc(NC(=O)NS(=O)(=O)c2ccccc2OCCCl)n1 [Triasulfuron]
Rat [16]; [39]
  LEL: 10 mg/kg/day
  NEL: < 10 mg/kg/day
Rat [16]; systemic / in life observation / body weight / body weight + systemic / in life observation / food consumption / food consumption
  LOAEL: 500 mg/kg/day
Rat [16]; systemic / in life observation / body weight / body weight + systemic / in life observation / food consumption / food consumption + systemic…
  NOAEL: 10 mg/kg/day
Mouse [17]; [40]
  LEL: 129 mg/kg/day
  LOAEL: 129 mg/kg/day
Mouse [17]; [41]
  NEL: 1.2 mg/kg/day
  NOAEL: 1.2 mg/kg/day
Rat [18]; [42]
  LOAEL: 221 mg/kg/day
  NOAEL: 32.1 mg/kg/day
Rat [18]; systemic / in life observation / clinical signs / palpable mass
  LEL: 42.9 mg/kg/day
Rat [18]; systemic / in life observation / clinical signs / palpable mass + systemic / in life observation / body weight / body weight + systemic / in…
  NEL: 0.4 mg/kg/day
Dog [19]; [43]
  LEL: 2.5 mg/kg/day
  LOAEL: 25 mg/kg/day
  NEL: < 2.5 mg/kg/day
Dog [19]; systemic / pathology microscopic / prostate / hyperplasia + systemic / hematology / erythrocyte (rbc) count differential / erythrocyte (rbc…
  NOAEL: 2.5 mg/kg/day
Rat [20]; [44]
  LEL: 100 mg/kg/day
  LOAEL: 900 mg/kg/day
  NEL: < 100 mg/kg/day
Rat [20]; group: developmental, developmental / developmental malformation / bone / unossified + systemic / in life observation / body weight / fetal weight
  NOAEL: 300 mg/kg/day
Rat [20]; group: maternal, systemic / in life observation / body weight / body weight + systemic / in life observation / body weight / body weight gain
  LOAEL: 300 mg/kg/day
Rat [20]; group: maternal, systemic / in life observation / body weight / body weight + systemic / in life observation / body weight / body weight gain + systemic / in…
  LEL: 300 mg/kg/day
Rat [20]; [45]
  NEL: 100 mg/kg/day
  NOAEL: 100 mg/kg/day
